The values below come from patent US11458123B2 (Arvinas, Inc., priority 2016, dated 2022).

For the experiment, the system named is tau protein. Put plainly: Tau protein in vitro degradation assay (Western blot, Tau-13 antibody). The format is cell-based, human. Conditions: SK-N-SH cells, 72 hours of incubation; for Degradation activity* (highest amount of degradation observed at any dosage; tau protein remaining) / Degradation activity (tau protein remaining; highest amount of degradation observed at any dosage): tested at 300 nM, 100 nM, 33 nM and 11 nM, Western blot, Tau-13 antibody; for Activity* (highest amount of degradation observed at any dosage, as tau protein remaining): tested at 1000 nM, 300 nM and 100 nM. The essentials: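 Tau degradation read by Tau-13 Western blot (detects all human tau forms) of SDS-PAGE-resolved lysates from SK-N-SH cells. Cells were plated at least 18 h before 72 h exposure to PROTACs at either 1000/300/100 nM or 300/100/33/11 nM.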
(In general: A western blot detects proteins with antibodies after separation by electrophoresis.)

Consider `Cn1c2ccncc2c2ccc(-c3cnc(O[C@H]4C[C@H](OCCCOCCCOC5CN(c6ccc7c(c6)C(=O)N(C6CCC(=O)NC6=O)C7=O)C5)C4)c(C(F)(F)F)c3)cc21` (stereo partly shown) [Compound 125, 2-(2,6-dioxopiperidin-3-yl)-5-(3-(3-(3-((1r,3r)-3-((5-(5-methyl-5H-pyrido[4,3-b]indol-7-yl)-3-(trifluoromethyl)pyridin-2-yl)oxy)cyclobutoxy)propoxy)propoxy)azetidin-1-yl)isoindoline-1,3-dione], for which the “Degradation activity* (highest amount of degradation observed at any dosage; tau protein remaining)” value was “C (>80% tau protein remaining after 72 hours of incubation with the test compound)”.

Regarding `Cn1c2ccncc2c2ccc(-c3ccc(OC4CC5(C4)CN(CCCCOCCCCOc4ccc6c(c4)C(=O)N(C4CCC(=O)NC4=O)C6=O)C5)nc3)cc21` (stereo not shown) [Compound 107, 2-(2,6-dioxopiperidin-3-yl)-5-(4-(4-(6-((5-(5-methyl-5H-pyrido[4,3-b]indol-7-yl)pyridin-2-yl)oxy)-2-azaspiro[3.3]heptan-2-yl)butoxy)butoxy)isoindoline-1,3-dione], the “Degradation activity* (highest amount of degradation observed at any dosage; tau protein remaining)” value is reported as “C (>80% tau protein remaining after 72 hours of incubation with the test compound)”. As to `Cc1ncsc1-c1ccc(CNC(=O)[C@@H]2C[C@@H](O)CN2C(=O)[C@@H](NC(=O)COCCOCCOCCCOc2ccc3nc(-c4ccc(N(C)C)cc4)ccc3c2)C(C)(C)C)cc1` [Compound 8, (2S,4R)-1-((S)-2-(tert-butyl)-15-((2-(4-(dimethylamino)phenyl)quinolin-6-yl)oxy)-4-oxo-6,9,12-trioxa-3-azapentadecanoyl)-4-hydroxy-N-(4-(4-methylthiazol-5-yl)benzyl)pyrrolidine-2-carboxamide], the “Activity* (highest amount of degradation observed at any dosage, as tau protein remaining)” value is “C (>80% tau protein remaining after 72 hours of incubation with the test compound)”. Consider `Cc1cc(-c2ccc3c4cnccc4n(C)c3c2)cnc1OCCOCCOCCOCCOCCOc1ccc2c(c1)C(=O)N(C1CCC(=O)NC1=O)C2=O` (stereo not shown) [Compound 140, 2-(2,6-dioxopiperidin-3-yl)-5-((14-((3-methyl-5-(5-methyl-5H-pyrido[4,3-b]indol-7-yl)pyridin-2-yl)oxy)-3,6,9,12-tetraoxatetradecyl)oxy)isoindoline-1,3-dione], for which the “Degradation activity* (highest amount of degradation observed at any dosage; tau protein remaining)” value was “A (≤50% tau protein remaining after 72 hours of incubation with the test compound)”. Same read-out and setting: the entry for `Cn1c2ccncc2c2ccc(-c3ccc(O[C@H]4C[C@H](OCCOCCOC5CN(c6ccc7c(c6)C(=O)N(C6CCC(=O)NC6=O)C7=O)C5)C4)nc3)cc21` (stereo partly shown) [Compound 163, 2-(2,6-dioxopiperidin-3-yl)-5-(3-(2-(2-((1r,3r)-3-((5-(5-methyl-5H-pyrido[4,3-b]indol-7-yl)pyridin-2-yl)oxy)cyclobutoxy)ethoxy)ethoxy)azetidin-1-yl)isoindoline-1,3-dione] is “C (>80% tau protein remaining after 72 hours of incubation with the test compound)”.

With `O=C1CCC(N2C(=O)c3ccc(OCCCCC#Cc4ccc(O[C@H]5C[C@H](Oc6ccc(-c7ccc8c(c7)[nH]c7ccncc78)cn6)C5)cn4)cc3C2=O)C(=O)N1` (stereo partly shown) [Compound 172, 5-((6-(5-((1r,3r)-3-((5-(5H-pyrido[4,3-b]indol-7-yl)pyridin-2-yl)oxy)cyclobutoxy)pyridin-2-yl)hex-5-yn-1-yl)oxy)-2-(2,6-dioxopiperidin-3-yl)isoindoline-1,3-dione], the “Degradation activity (tau protein remaining; highest amount of degradation observed at any dosage)” value was “C (>80% tau protein remaining after 72 hours of incubation with the test compound)”. As for `Cc1ncsc1-c1ccc([C@H](C)NC(=O)[C@@H]2C[C@@H](O)CN2C(=O)[C@@H](NC(=O)COCCCOCCCOc2ccc3nc(-c4ccc(N(C)C)cc4)ccc3c2)C(C)(C)C)cc1` [Compound 36, (2S,4R)-1-((S)-2-(2-(3-(3-(2-(4-(dimethylamino)phenyl)quinolin-6-yloxy)propoxy)propoxy)acetamido)-3,3-dimethylbutanoyl)-4-hydroxy-N—((S)-1-(4-(4-methylthiazol-5-yl)phenyl)ethyl)pyrrolidine-2-carboxamide], the “Activity* (highest amount of degradation observed at any dosage, as tau protein remaining)” value is listed as “C (>80% tau protein remaining after 72 hours of incubation with the test compound)”. Same read-out and setting: the value for `O=C1CCC(N2C(=O)c3cccc(NCCOCCOCCOCCOCCOc4ccc(-c5ccc6c(c5)[nH]c5ccncc56)cn4)c3C2=O)C(=O)N1` (stereo not shown) [Compound 4, 4-((14-((5-(5H-pyrido[4,3-b]indol-7-yl)pyridin-2-yl)oxy)-3,6,9,12-tetraoxatetradecyl)amino)-2-(2,6-dioxopiperidin-3-yl)isoindoline-1,3-dione] was “A (≤50% tau protein remaining after 72 hours of incubation with the test compound)”. Turning to `Cn1c2ccncc2c2ccc(-c3ccc(O[C@H]4C[C@H](OCC#CCOCCOC5CN(c6ccc7c(c6)C(=O)N(C6CCC(=O)NC6=O)C7=O)C5)C4)nc3)cc21` (stereo partly shown) [Compound 212, 2-(2,6-dioxopiperidin-3-yl)-5-(3-(2-((4-((1r,3r)-3-((5-(5-methyl-5H-pyrido[4,3-b]indol-7-yl)pyridin-2-yl)oxy)cyclobutoxy)but-2-yn-1-yl)oxy)ethoxy)azetidin-1-yl)isoindoline-1,3-dione], the “Degradation activity (tau protein remaining; highest amount of degradation observed at any dosage)” value is “A (≤50% tau protein remaining after 72 hours of incubation with the test compound)”. With `O=C1CCC(N2C(=O)c3cccc(NCCOCCOCCOCCOc4ccc(-c5ccc6c(c5)[nH]c5ccncc56)cn4)c3C2=O)C(=O)N1` (stereo not shown) [Compound 2, 4-(2-(2-(2-(2-(5-(5H-pyrido[4,3-b]indol-7-yl)pyridin-2-yloxy)ethoxy)ethoxy)ethoxy)ethylamino)-2-(2,6-dioxopiperidin-3-yl)isoindoline-1,3-dione], the “Activity* (highest amount of degradation observed at any dosage, as tau protein remaining)” value was “A (≤50% tau protein remaining after 72 hours of incubation with the test compound)”. In the case of `O=C1CCC(N2C(=O)c3ccc(N4CCN(CCCO[C@H]5C[C@H](Oc6ccc(-c7ccc8c(c7)[nH]c7ccncc78)cn6)C5)CC4)cc3C2=O)C(=O)N1` (stereo partly shown) [Compound 60, 5-(4-(3-((1r,3r)-3-((5-(5H-pyrido[4,3-b]indol-7-yl)pyridin-2-yl)oxy)cyclobutoxy)propyl)piperazin-1-yl)-2-(2,6-dioxopiperidin-3-yl)isoindoline-1,3-dione], the “Degradation activity* (highest amount of degradation observed at any dosage; tau protein remaining)” value was “C (>80% tau protein remaining after 72 hours of incubation with the test compound)”.

Consider `Cc1ncsc1-c1ccc([C@H](C)NC(=O)[C@@H]2C[C@@H](O)CN2C(=O)[C@@H](NC(=O)COCCOCCOCCOCCOc2ncc(-c3ccc4c(c3)[nH]c3ccncc34)cc2C(F)(F)F)C(C)(C)C)cc1` [Compound 119, (2S,4R)-1-((S)-17-((5-(5H-pyrido[4,3-b]indol-7-yl)-3-(trifluoromethyl)pyridin-2-yl)oxy)-2-(tert-butyl)-4-oxo-6,9,12,15-tetraoxa-3-azaheptadecanoyl)-4-hydroxy-N—((S)-1-(4-(4-methylthiazol-5-yl)phenyl)ethyl)pyrrolidine-2-carboxamide], for which the “Degradation activity* (highest amount of degradation observed at any dosage; tau protein remaining)” value was “C (>80% tau protein remaining after 72 hours of incubation with the test compound)”. Turning to `Cn1c2ccncc2c2ccc(-c3ccc(OCCCCOCCCCN4CC5(CC(Oc6ccc7c(c6)C(=O)N(C6CCC(=O)NC6=O)C7=O)C5)C4)nc3)cc21` (stereo not shown) [Compound 116, 2-(2,6-dioxopiperidin-3-yl)-5-((2-(4-(4-((5-(5-methyl-5H-pyrido[4,3-b]indol-7-yl)pyridin-2-yl)oxy)butoxy)butyl)-2-azaspiro[3.3]heptan-6-yl)oxy)isoindoline-1,3-dione], the “Degradation activity* (highest amount of degradation observed at any dosage; tau protein remaining)” value was “C (>80% tau protein remaining after 72 hours of incubation with the test compound)”. Regarding `Cc1ncoc1-c1ccc([C@H](C)NC(=O)[C@@H]2C[C@@H](O)CN2C(=O)[C@@H](NC(=O)COCCOCCOCCN2CCN(c3ccn4c(n3)nc3ccccc34)CC2)C(C)(C)C)cc1` [Compound 19, (2S,4R)-1-((S)-14-(4-(benzo[4,5]imidazo[1,2-a]pyrimidin-2-yl)piperazin-1-yl)-2-(tert-butyl)-4-oxo-6,9,12-trioxa-3-azatetradecanoyl)-4-hydroxy-N—((S)-1-(4-(4-methyloxazol-5-yl)phenyl)ethyl)pyrrolidine-2-carboxamide], the “Activity* (highest amount of degradation observed at any dosage, as tau protein remaining)” value is given as “C (>80% tau protein remaining after 72 hours of incubation with the test compound)”. As for `O=C1CCC(N2Cc3cc(OCC#Cc4ccc(O[C@H]5C[C@H](Oc6ccc(-c7ccc8c(c7)[nH]c7ccncc78)cn6)C5)cn4)ccc3C2=O)C(=O)N1` (stereo partly shown) [Compound 180, 3-(5-((3-(5-((1r,3r)-3-((5-(5H-pyrido[4,3-b]indol-7-yl)pyridin-2-yl)oxy)cyclobutoxy)pyridin-2-yl)prop-2-yn-1-yl)oxy)-1-oxoisoindolin-2-yl)piperidine-2,6-dione], the “Degradation activity (tau protein remaining; highest amount of degradation observed at any dosage)” value is recorded as “A (≤50% tau protein remaining after 72 hours of incubation with the test compound)”. As for `Cn1c2ccncc2c2ccc(-c3ccc(O[C@H]4C[C@H](OCCOCCOCCC5CN(c6ccc7c(c6)C(=O)N(C6CCC(=O)NC6=O)C7=O)C5)C4)nc3)cc21` (stereo partly shown) [Compound 190, 2-(2,6-dioxopiperidin-3-yl)-5-(3-(2-(2-(2-((1r,3r)-3-((5-(5-methyl-5H-pyrido[4,3-b]indol-7-yl)pyridin-2-yl)oxy)cyclobutoxy)ethoxy)ethoxy)ethyl)azetidin-1-yl)isoindoline-1,3-dione], the “Degradation activity (tau protein remaining; highest amount of degradation observed at any dosage)” value is reported as “C (>80% tau protein remaining after 72 hours of incubation with the test compound)”.
